# In PubChem BioAssay AID2060908 (Molecular Pharmacology Branch, DTP, NCI, 2025):
# Test system: 186277-243-T-J2-PDC complex spheroids, viability
# Test: Anticancer human tumor 186277-243-T-J2-PDC patient-derived colon adenocarcinoma cell line growth inhibition [RAS]
# Settings: for IC50: curve of first compound; for viability, T/C: stronger effect = lower value
# Method in brief: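 Tumour cells grown as complex spheroids with HUVEC endothelial cells and mesenchymal stem cells, treated with RAS pathway inhibitor combinations. Each agent spans half-log steps from near clinical Cmax, or 10 microM where Cmax is unknown.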
# 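Also: spheroids exposed to compounds for 7 days before viability read.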
compound,measurement,setting,value
CC1(C)CCC(Nc2ncc(C(F)(F)F)c(-c3c[nH]c4c(P(C)(C)=O)c(C#N)ccc34)n2)CN1 (stereo unspecified) + C#Cc1c(F)ccc2cc(O)cc(-c3ncc4c(N5CC6CCC(C5)N6)nc(OCC56CCCN5CC(F)C6)nc4c3F)c12,IC50,second compound 0.0316 µM,69.8 nM
same,IC50,second compound 0.1 µM,12.1 nM
same,IC50,second compound 0.316 µM,< 0.949 nM
same,IC50,second compound 1 µM,< 0.949 nM
same,IC50,second compound 3.16 µM,< 0.949 nM
same,IC50,second compound 10 µM,< 0.949 nM
same,"viability, T/C","second compound 0.0316 µM, first compound 0.000949 µM",91.9%
same,"viability, T/C","second compound 0.0316 µM, first compound 0.003 µM",80.4%
same,"viability, T/C","second compound 0.0316 µM, first compound 0.00949 µM",60.4%
same,"viability, T/C","second compound 0.0316 µM, first compound 0.03 µM",55.8%
same,"viability, T/C","second compound 0.0316 µM, first compound 0.0949 µM",51.8%
same,"viability, T/C","second compound 0.0316 µM, first compound 0.3 µM",40.9%
same,"viability, T/C","second compound 0.1 µM, first compound 0.000949 µM",50%
same,"viability, T/C","second compound 0.1 µM, first compound 0.003 µM",67.4%
same,"viability, T/C","second compound 0.1 µM, first compound 0.00949 µM",55.4%
same,"viability, T/C","second compound 0.1 µM, first compound 0.03 µM",29%
same,"viability, T/C","second compound 0.1 µM, first compound 0.0949 µM",34.5%
same,"viability, T/C","second compound 0.1 µM, first compound 0.3 µM",26.1%
same,"viability, T/C","second compound 0.316 µM, first compound 0.000949 µM",27.9%
same,"viability, T/C","second compound 0.316 µM, first compound 0.003 µM",29.9%
same,"viability, T/C","second compound 0.316 µM, first compound 0.00949 µM",23%
same,"viability, T/C","second compound 0.316 µM, first compound 0.03 µM",15.9%
same,"viability, T/C","second compound 0.316 µM, first compound 0.0949 µM",15.2%
same,"viability, T/C","second compound 0.316 µM, first compound 0.3 µM",17.2%
same,"viability, T/C","second compound 1 µM, first compound 0.000949 µM",15.6%
same,"viability, T/C","second compound 1 µM, first compound 0.003 µM",16.5%
same,"viability, T/C","second compound 1 µM, first compound 0.00949 µM",13%
same,"viability, T/C","second compound 1 µM, first compound 0.03 µM",13.9%
same,"viability, T/C","second compound 1 µM, first compound 0.0949 µM",12.4%
same,"viability, T/C","second compound 1 µM, first compound 0.3 µM",11.5%
same,"viability, T/C","second compound 3.16 µM, first compound 0.000949 µM",12.4%
same,"viability, T/C","second compound 3.16 µM, first compound 0.003 µM",11.7%
same,"viability, T/C","second compound 3.16 µM, first compound 0.00949 µM",11%
same,"viability, T/C","second compound 3.16 µM, first compound 0.03 µM",12.5%
same,"viability, T/C","second compound 3.16 µM, first compound 0.0949 µM",11.2%
same,"viability, T/C","second compound 3.16 µM, first compound 0.3 µM",8.62%
same,"viability, T/C","second compound 10 µM, first compound 0.000949 µM",8.95%
same,"viability, T/C","second compound 10 µM, first compound 0.003 µM",9.05%
same,"viability, T/C","second compound 10 µM, first compound 0.00949 µM",7.62%
same,"viability, T/C","second compound 10 µM, first compound 0.03 µM",6.45%
same,"viability, T/C","second compound 10 µM, first compound 0.0949 µM",9.73%
same,"viability, T/C","second compound 10 µM, first compound 0.3 µM",7.54%
CCc1c2c(nc3ccc(O)cc13)-c1cc3c(c(=O)n1C2)COC(=O)[C@]3(O)CC + CCn1c(-c2cc(N3CCN(C)CC3)cnc2C(C)OC)c2c3cc(ccc31)-c1csc(n1)CC(NC(=O)C1CC1C)C(=O)N1CCCC(N1)C(=O)OCC(C)(C)C2,IC50,second compound 0.000949 µM,5.27 nM
same,IC50,second compound 0.003 µM,1.96 nM
same,IC50,second compound 0.00949 µM,< 0.949 nM
same,IC50,second compound 0.03 µM,< 0.949 nM
same,IC50,second compound 0.0949 µM,< 0.949 nM
same,IC50,second compound 0.3 µM,< 0.949 nM
same,"viability, T/C","second compound 0.000949 µM, first compound 0.000949 µM",113%
same,"viability, T/C","second compound 0.000949 µM, first compound 0.003 µM",58.7%
same,"viability, T/C","second compound 0.000949 µM, first compound 0.00949 µM",39.5%
same,"viability, T/C","second compound 0.000949 µM, first compound 0.03 µM",23.4%
same,"viability, T/C","second compound 0.000949 µM, first compound 0.0949 µM",9.6%
same,"viability, T/C","second compound 0.000949 µM, first compound 0.3 µM",6.83%
same,"viability, T/C","second compound 0.003 µM, first compound 0.000949 µM",69.5%
same,"viability, T/C","second compound 0.003 µM, first compound 0.003 µM",37.6%
same,"viability, T/C","second compound 0.003 µM, first compound 0.00949 µM",22.2%
same,"viability, T/C","second compound 0.003 µM, first compound 0.03 µM",13.2%
same,"viability, T/C","second compound 0.003 µM, first compound 0.0949 µM",5.72%
same,"viability, T/C","second compound 0.003 µM, first compound 0.3 µM",4.11%
same,"viability, T/C","second compound 0.00949 µM, first compound 0.000949 µM",18.6%
same,"viability, T/C","second compound 0.00949 µM, first compound 0.003 µM",10.9%
same,"viability, T/C","second compound 0.00949 µM, first compound 0.00949 µM",9.28%
same,"viability, T/C","second compound 0.00949 µM, first compound 0.03 µM",6.45%
same,"viability, T/C","second compound 0.00949 µM, first compound 0.0949 µM",3.6%
same,"viability, T/C","second compound 0.00949 µM, first compound 0.3 µM",2.17%
same,"viability, T/C","second compound 0.03 µM, first compound 0.000949 µM",9.49%
same,"viability, T/C","second compound 0.03 µM, first compound 0.003 µM",6.27%
same,"viability, T/C","second compound 0.03 µM, first compound 0.00949 µM",5.72%
same,"viability, T/C","second compound 0.03 µM, first compound 0.03 µM",4.05%
same,"viability, T/C","second compound 0.03 µM, first compound 0.0949 µM",2.52%
same,"viability, T/C","second compound 0.03 µM, first compound 0.3 µM",1.56%
same,"viability, T/C","second compound 0.0949 µM, first compound 0.000949 µM",5.21%
same,"viability, T/C","second compound 0.0949 µM, first compound 0.003 µM",4.44%
same,"viability, T/C","second compound 0.0949 µM, first compound 0.00949 µM",4.37%
same,"viability, T/C","second compound 0.0949 µM, first compound 0.03 µM",2.94%
same,"viability, T/C","second compound 0.0949 µM, first compound 0.0949 µM",2.29%
same,"viability, T/C","second compound 0.0949 µM, first compound 0.3 µM",1.3%
same,"viability, T/C","second compound 0.3 µM, first compound 0.000949 µM",4.39%
same,"viability, T/C","second compound 0.3 µM, first compound 0.003 µM",3.92%
same,"viability, T/C","second compound 0.3 µM, first compound 0.00949 µM",3.85%
same,"viability, T/C","second compound 0.3 µM, first compound 0.03 µM",2.91%
same,"viability, T/C","second compound 0.3 µM, first compound 0.0949 µM",2.37%
same,"viability, T/C","second compound 0.3 µM, first compound 0.3 µM",1.27%
CC(C)n1nc(-c2ccc3oc(N)nc3c2)c2c(N)ncnc21 + C#Cc1c(F)ccc2cc(O)cc(-c3ncc4c(N5CC6CCC(C5)N6)nc(OCC56CCCN5CC(F)C6)nc4c3F)c12,IC50,second compound 0.0316 µM,13.7 nM
same,IC50,second compound 0.1 µM,1.83 nM
same,IC50,second compound 0.316 µM,< 0.316 nM
same,IC50,second compound 1 µM,< 0.316 nM
same,IC50,second compound 3.16 µM,< 0.316 nM
same,IC50,second compound 10 µM,< 0.316 nM
same,"viability, T/C","second compound 0.0316 µM, first compound 0.000316 µM",69.1%
same,"viability, T/C","second compound 0.0316 µM, first compound 0.001 µM",90.7%
same,"viability, T/C","second compound 0.0316 µM, first compound 0.00316 µM",58.6%
same,"viability, T/C","second compound 0.0316 µM, first compound 0.01 µM",51.7%
same,"viability, T/C","second compound 0.0316 µM, first compound 0.0316 µM",44.2%
same,"viability, T/C","second compound 0.0316 µM, first compound 0.1 µM",25.9%
same,"viability, T/C","second compound 0.1 µM, first compound 0.000316 µM",63.1%
same,"viability, T/C","second compound 0.1 µM, first compound 0.001 µM",53.6%
same,"viability, T/C","second compound 0.1 µM, first compound 0.00316 µM",44.3%
same,"viability, T/C","second compound 0.1 µM, first compound 0.01 µM",37.8%
same,"viability, T/C","second compound 0.1 µM, first compound 0.0316 µM",19.9%
same,"viability, T/C","second compound 0.1 µM, first compound 0.1 µM",7.3%
same,"viability, T/C","second compound 0.316 µM, first compound 0.000316 µM",26%
same,"viability, T/C","second compound 0.316 µM, first compound 0.001 µM",28.6%
same,"viability, T/C","second compound 0.316 µM, first compound 0.00316 µM",13.9%
same,"viability, T/C","second compound 0.316 µM, first compound 0.01 µM",12.1%
same,"viability, T/C","second compound 0.316 µM, first compound 0.0316 µM",7.95%
same,"viability, T/C","second compound 0.316 µM, first compound 0.1 µM",3.56%
same,"viability, T/C","second compound 1 µM, first compound 0.000316 µM",18.2%
same,"viability, T/C","second compound 1 µM, first compound 0.001 µM",14.2%
same,"viability, T/C","second compound 1 µM, first compound 0.00316 µM",13.9%
same,"viability, T/C","second compound 1 µM, first compound 0.01 µM",6.42%
same,"viability, T/C","second compound 1 µM, first compound 0.0316 µM",5.57%
same,"viability, T/C","second compound 1 µM, first compound 0.1 µM",2.65%
same,"viability, T/C","second compound 3.16 µM, first compound 0.000316 µM",13.7%
same,"viability, T/C","second compound 3.16 µM, first compound 0.001 µM",11.4%
same,"viability, T/C","second compound 3.16 µM, first compound 0.00316 µM",7.28%
same,"viability, T/C","second compound 3.16 µM, first compound 0.01 µM",4.66%
same,"viability, T/C","second compound 3.16 µM, first compound 0.0316 µM",4.51%
same,"viability, T/C","second compound 3.16 µM, first compound 0.1 µM",2.8%
same,"viability, T/C","second compound 10 µM, first compound 0.000316 µM",9.87%
same,"viability, T/C","second compound 10 µM, first compound 0.001 µM",6.96%
same,"viability, T/C","second compound 10 µM, first compound 0.00316 µM",8.48%
same,"viability, T/C","second compound 10 µM, first compound 0.01 µM",4.45%
same,"viability, T/C","second compound 10 µM, first compound 0.0316 µM",3.9%
same,"viability, T/C","second compound 10 µM, first compound 0.1 µM",1.75%
